Test results taken from patent publication US10603323B2, “Combination of histamine-3 receptor inverse agonists with acetylcholinesterase inhibitors” (priority 2016, dated 2020).
Where a name gives a salt, the structure may show the parent alone. Read-outs that look alike come from different tables or passages of the source.

Experiments:
[1] = test system: stimulation evoked theta levels in dorsal hippocampus; experiment: Theta modulation in dorsal hippocampus of anesthetized rats; format: in vivo, male Wistar rats
Text: Male Wistar rats (240-320 g) were anesthetized by intraperitoneal administration of urethane (1.2 to 1.5 g/kg) for implantation of a catheter in the left femoral vein. The animal was placed in a stereotaxic frame for implanting an electrode (stainless steel wire, Plastics One) into the dorsal hippocampus (AP, −3.8 mm; ML, +2.2 mm; DV, −2.5 mm; Paxinos and Watson, 2004). Bipolar stimulating electrode (untwisted stainless steel wires, separated by 0.75-1.0 mm at their tips, Plastics One) was implanted in the Nucleus Pontis Oralis (NPO; AP, −7.8 mm; ML, 1.8 mm; DV, −6.0 mm; Paxinos and Watson, 2004). Additionally one electrode was implanted into the cerebellum which served as a reference. Hippocampal θ rhythm was evoked via a 6-s electrical stimulation train (20-160 μA, 0.3-ms pulse duration, 250 Hz) delivered to the NPO at a rate of 0.01 trains/s with a Grass S88 stimulator and PSIU6 stimulus isolation unit (Grass Medical Instruments, Quincy, Mass.). EEG was recorded at a rate of 1000 Hz using Ponemah (Version 5.2) software and stored for off-line analysis using NeuroScore (Version 3.0). Baseline amplitude level was achieved by using the current required to elicit θ rhythm to 50% of the maximal amplitude under control conditions.
Power in the θ rhythm frequency in the stimulation period during the 30-min baseline period was calculated and the % changes in these measures post treatment were calculated. […] Statistical significance was considered at a p value less than 0.05.

[2] = test system: extracellular levels of acetylcholine in medial prefrontal cortex; experiment: Acetylcholine modulation in medial prefrontal cortex (microdialysis); format: in vivo, male Wistar rats; details: for mean AUC of percent change in acetylcholine levels, combination compared to donepezil alone: test compound in combination with donepezil (1 mg/kg, s.c.)
Text: Male Wistar rats (240-300 g body weight) were stereotaxically implanted with a microdialysis guide cannula in medial prefrontal cortex (mPFC; AP: +3.2 mm, ML: −0.5 mm, DV: −3.0 mm) under isoflurane anesthesia. Co-ordinates were taken according to atlas for the rat brain (Paxinos and Watson 2004) with reference points taken from bregma and vertical from the skull. The rats were allowed to recover individually for four days in a round bottom Plexiglas bowl with free access to feed and water.
After surgical recovery of 4 days, male Wistar rats were connected to dual quartz lined two-channel liquid swivel (Instech, UK) on a counter balance lever arm, which allowed unrestricted movements of the animal. Sixteen hours before start of the study, a pre-equilibrated microdialysis probe (2 mm dialysis membrane) was inserted into mPFC through the guide cannula. On the day of study, probe was perfused with artificial cerebrospinal fluid (aCSF; NaCl 147 mM, KCl2.7 mM, MgCl2 1 mM, CaCl2. 2H2O 1.2 mM, pH 7.4) at a flow rate of 1.5 μL/min and a stabilization period of 2 h was maintained. Five basal samples were collected at 20 min intervals prior to the treatment of test Compounds (3 or 10 mg/kg, p.o.) or vehicle. […] Dialysate samples were collected for an additional period of 4 h post treatment of test compounds. Dialysates were stored below −50° C. prior to analysis.
Acetylcholine concentrations in dialysates were quantified using LC-MS/MS based method.
All microdialysis data for acetylcholine was plotted as percent change from mean dialysate basal concentrations with 100% defined as the average of five pre-dose values. […] Statistical significance was considered at a p value less than 0.05. Incorrect probe placement was considered as criteria to reject the data from animal.

[3] = target: T1, Human histamine-3 receptor (Homo sapiens, UniProt Q9Y5N1); experiment: Determination of Ki value at human histamine-3 receptor (radioligand binding, [3H] R-α-methylhistamine)
T1 construct: expressed in transfected cells; host or cells: CHO cells
T1 sequence (Q9Y5N1 whole entry): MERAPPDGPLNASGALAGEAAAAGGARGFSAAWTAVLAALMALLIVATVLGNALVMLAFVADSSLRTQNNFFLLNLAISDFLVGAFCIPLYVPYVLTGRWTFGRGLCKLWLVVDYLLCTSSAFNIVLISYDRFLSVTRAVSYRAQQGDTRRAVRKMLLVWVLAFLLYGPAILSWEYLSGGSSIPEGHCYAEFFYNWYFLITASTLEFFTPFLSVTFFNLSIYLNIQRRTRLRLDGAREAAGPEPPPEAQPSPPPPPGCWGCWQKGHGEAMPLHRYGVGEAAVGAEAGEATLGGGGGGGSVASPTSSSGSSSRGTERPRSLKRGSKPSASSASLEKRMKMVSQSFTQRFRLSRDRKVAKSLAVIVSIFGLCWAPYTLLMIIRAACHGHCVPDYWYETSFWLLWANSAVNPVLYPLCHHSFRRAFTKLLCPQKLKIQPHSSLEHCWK
Procedure: Test compounds were evaluated according to the following procedures to determine the Ki value at human and rat histamine-3 receptor.
• Receptor source: Rat brain frontal cortex or recombinant human cDNA expressed in CHO cells • Radioligand: [3H] R-α-methylhistamine • Final ligand concentration: [3.0 nM] • Non-specific determinant: R-α-methylhistamine (100 μM) • Reference compound: R-α-methylhistamine • Positive control: R-α-methylhistamine Incubation Conditions:
Increasing concentrations of test compounds or standard were incubated with membrane receptors and radioligand in 5 mM MgC12 and 50 mM TRIS-HCl (pH 7.4) for 60 minutes at room temperature. The reaction was terminated by rapid vacuum filtration onto the glass fiber filters. Radioactivity trapped onto the filters was determined and compared to the control values in order to ascertain any interactions of the test compound(s) with either cloned human or rat receptor binding site.

[4] = Compound 1 (1 mg/kg, i.v.) in combination with donepezil (0.3 mg/kg, i.v.)
[5] = test compound (3 or 10 mg/kg, p.o.) in combination with donepezil (1 mg/kg, s.c.)

O=C(CN1CCOCC1)Nc1ccc(OC2CCN(C3CCC3)CC2)cc1 [Compound 1, N-[4-(1-Cyclobutylpiperidin-4-yloxy)phenyl]-2-(morpholin-4-yl)acetamide dihydrochloride]
mean AUC of theta power, combination compared to donepezil [1, 4]: significantly higher
peak theta power levels, % of pre-dose levels [1, 4]: 163±15 % of pre-dose levels
peak acetylcholine levels, % of pre-dose levels [2, 5]: 1676±150 % of pre-dose levels
peak acetylcholine levels, % of pre-dose levels ([2]; test compound (3 or 10 mg/kg, p.o.) in combination with rivastigmine (0.5 mg/kg, s.c.)): 1276±213 % of pre-dose levels
mean AUC of percent change in acetylcholine levels, combination compared to donepezil alone [2]: significantly higher
mean AUC of percent change in acetylcholine levels, combination compared to rivastigmine alone ([2]; test compound in combination with rivastigmine (0.5 mg/kg, s.c.)): higher

O=C(CN1CCOCC1)Nc1ccc(OC2CCN(C3CC3)CC2)cc1 [Compound 2, N-[4-(1-Cyclopropylpiperidin-4-yloxy)phenyl]-2-(morpholin-4-yl)acetamide tartrate]
Ki [3]: 19.9 nM
peak acetylcholine levels, % of pre-dose levels [2, 5]: 3057±468 % of pre-dose levels
mean AUC of percent change in acetylcholine levels, combination compared to donepezil alone [2]: significantly higher

CC(C)N1CCC(Oc2ccc(NC(=O)CN3CCOCC3)cc2)CC1 [Compound 3, N-[4-(1-Isopropylpiperidin-4-yloxy)phenyl]-2-(morpholin-4-yl)acetamide]
Ki ([3]; recombinant human cDNA expressed in CHO cells, [3H] R-α-methylhistamine 3.0 nM, read-out: Human histamie-3 receptor Ki): 8.3 nM
peak acetylcholine levels, % of pre-dose levels [2, 5]: 1874±184 % of pre-dose levels
mean AUC of percent change in acetylcholine levels, combination compared to donepezil alone [2]: significantly higher

COc1cc2c(cc1OC)C(=O)C(CC1CCN(Cc3ccccc3)CC1)C2 (centres unmarked) [donepezil, reference compound]
effect on hippocampal theta power ([1]; donepezil alone, 0.3 mg/kg, i.v.): increase in hippocampal theta power

CCN(C)C(=O)Oc1cccc([C@H](C)N(C)C)c1 [rivastigmine, reference compound]
maximum cortical acetylcholine levels, % of basal levels ([2]; rivastigmine alone, 0.5 mg/kg, s.c., mPFC dialysate): 612±104 % of basal levels
